Measurements reported in US12171729B2, “Formulations of terameprocol and temozolomide and their use in stimulation of humoral immunity in tumors” (The Johns Hopkins University, priority 2019, dated 2024).

What was measured:
[1] = system: Kras G12D mice; settings: mouse, in vivo, po
Description: FIG. 13 depicts MRI of lung tumors in mice. The axial images were taken by 9.4 T MRI; RARE T2-weighted; slice thickness=1 mm; total slice number=24. The scan started from neck to bottom of ribs. The tumor size ≥1 mm is detectable by this scan. H, heart; S, spine; Arrow: lung tumor;
In the present Kras-driven lung cancer model, since mice carry homozygous mutant Kras are embryonic lethal, all Kras mice bred are heterozygous Kras^+/G12D that one genetic engineering allele can synthesize the Kras G12D protein by “hit-and-run” recombination and cause cancers spontaneously (FIG. 11A). According to previous reports and experience, lung lesions could be found in mice as young as one-week old. In this group of mice, 100% of the mice will develop lung cancer between 15 to 40 weeks of age (FIG. 11B), and about 30% may also develop thymic lymphoma and papilloma (Nature; 410:6832; 1111-6, 2001). […]
In this study, 10-week old, female, Kras G12D mice were chosen; which lung cancer had not been well developed in at this age. […] After consecutive treatments for 120 days, treatment for mice that reached 28 weeks old was stopped in both groups and the mice were monitored and weighed continuously. […]

[2] = oral administration, short-term and long-term feeding; cited from earlier work
[3] = daily (1 mg/day) IV injection, nude mice carrying human tumor xenografts; cited from earlier work
[4] = system: LN229 tumors; test: Metabolite analysis (Metabolon) of LN229 tumor samples; type: in vivo, mouse; settings: EM+M4N+TMZ1/2 versus EM+TMZ1/2 schedule
[5] = system: LN229 tumor xenograft mice; test: Cytokine profiles in serum of treated LN229 xenograft nude mice; type: in vivo, mouse; settings: sera from LN229 tumor xenograft mice
[6] = system: LN229 tumors; test: Immune cells infiltration in LN229 tumors from xenograft mice; type: in vivo, mouse
[7] = system: malignant gliomas; settings: cited from earlier work

Compound: COc1ccc(C[C@@H](C)[C@@H](C)Cc2ccc(OC)c(OC)c2)cc1OC [M4N, Tetra-O-methyl nordihydroguaiaretic acid]
- weight loss during treatment [1]: no significant weight loss
- M4N concentration in mouse organs [2]: ≤ 906 μg/g of tissue
- M4N levels accumulated in blood and tumors [3]: above 1 mM
- effect on metabolic pathways of the tumor [4]: suppressed most of the metabolic pathways
- level of IL-21 in sera (in words) [5]: significantly increased
- tumor infiltrating immune cells in the tumor microenvironment [6]: Tumor infiltrating macrophages and B cells

Compound: Cn1nnc2c(C(N)=O)ncn2c1=O [TMZ, 3,4-dihydro-3-methyl-4-oxoimidazo[5,1-d]-1,2,3,5-tetrazine-8-carboxamide]
- survival rate at 2 years ([7]; radiotherapy and chemotherapy, radiotherapy alone 10.4%): 26.5%
- dose-limiting toxicity ([7]; systemic exposure, specifically thrombocytopenia and neutropenia): hematological toxicity
